According to patent US20110178104A1, “Anti-Heparin Compounds” (POLYMEDIX INC., priority 2010, published 2011):
pEC50: −log10 of the molar value. In brackets after ≈: the same amount, converted by molar mass. Several values for one entry are separate records, joined by “and”; a condition that tells them apart may be missing. Identical values can stand only once.

Assays:
[1] = tested on: isolated human erythrocytes; assay: cells; assay type: cell-based; conditions: Homo sapiens, Erythrocyte, 1 h, human RBC, 1 hour at 37° C.; read-out: Hemolysis EC50
In short: (§1)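 Pooled human red cells, washed and diluted from a 0.22% stock suspension in TBS pH 7.4, were shaken with two-fold dilutions (1000 to 0.48 µg/ml) for 1 h at 37 °C. Released hemoglobin in the supernatant was read at OD405. EC50 came from a four-parameter logistic fit, with melittin as positive control.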

in vitro = assay type: cell-based, human; conditions: human, pH 7.4
In short: as §1

enoxaparin = assay: FXa amidolytic assay (Example 10), enoxaparin; conditions: read-out: Enox FXa EC50; enoxaparin 0.1 ug/ml; human antithrombin, bovine Factor Xa
UFH = assay: FXa amidolytic assay (Example 10), UFH; conditions: read-out: Heparin FXa uM EC50; UFH 0.03 units/mL; human antithrombin, bovine Factor Xa
tinzaparin = assay: FXa amidolytic assay (Example 10), tinzaparin; conditions: read-out: Tinzap FXa EC50; tinzaparin 0.1 ug/ml; human antithrombin, bovine Factor Xa
Unfractionated heparin = assay: aPTT clotting assay, UFH 0.4 U/mL in plasma (Example 10); assay type: biochemical; conditions: unfractionated heparin 0.4 U/mL in plasma; aPTT clotting
Procedure: aPTT clotting Assay: Unfractionated heparin was mixed with plasma at a final concentration of 0.4 U/mL (or concentration which increases aPTT time to between 120 and 300 seconds). […] The ACL Elite Hemostasis analyzer (Beckman Coulter™) was used to add aPTT reagent (HemosIL SynthASil) to supplemented plasma. Clotting was initiated by addition of CaCl2 and time to clot was recorded.

fondaparinux [2] = assay: FXa amidolytic assay (Example 10), fondaparinux; conditions: for pEC50: read-out: Fondap FXa EC50, fondaparinux 0.02 μg/mL, human antithrombin, bovine Factor Xa
HepG2 cells = assay: Cytotoxicity colorimetric assay, HepG2; assay type: cell-based, human; design: Cytotoxicity HepG2, percent printed in parentheses after the concentration: concentration or dose not given beside the values; conditions: at the concentration given
In short: (§2)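 HepG2 cells (3×10^4/well, MEM + 10% FBS) and NIH/3T3 cells (2×10^4/well, DMEM + 10% BCS) were exposed to compound for 1 h in serum-free medium. Viability read by tetrazolium-to-formazan bioreduction after return to serum medium; EC50 from a four-parameter logistic fit.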

[3] = Cytotoxicity colorimetric assay, HepG2; assay type: cell-based, human; design: Cytotoxicity HepG2, percent printed in parentheses after the concentration: concentration or dose not given beside the values; conditions: human, HepG2 cells, one hour in serum-free media
In short: as §2

NIH/3T3 cells = assay: Cytotoxicity colorimetric assay, NIH/3T3; assay type: cell-based, mouse; conditions: at the concentration given
In short: as §2

[4] = Cytotoxicity colorimetric assay, NIH/3T3; assay type: cell-based, mouse; conditions: mouse, NIH/3T3 cells, one hour in serum-free media
In short: as §2

fondaparinux [5] = assay: In vivo neutralization of fondaparinux in the rat
Procedure: Compounds were selected to test fondaparinux neutralization in vivo. Rats were pre-treated with fondaparinux administered by IV injection at 0.5 mg/kg. The rats were then treated with a single IV injection of saline, protamine or the PMX compound. Blood was collected via the orbital sinus from three rats per group at the following time points: pre-dose, 1, 3, 10, 30 and 60 min. Plasma samples were prepared for analysis of anti-factor Xa activity using an AMEX Destiny Plus Coagulation Analyzer.

blood pressure = assay: Hemodynamic responses in the anesthetized rat; assay type: in vivo; conditions: anesthetized rat, 8 or 16 mg/kg 10 minute IV infusion after heparin 50 U/kg
Description: As a key safety issue for cationic compounds is reduction in blood pressure shortly after administration. To address this hemodynamic issue, a medicinal chemistry strategy with literature precedence of introducing carboxylic acid functionality was applied to the salicylamide series of compounds. […] Surgically prepared animals were purchased from Charles River Laboratories, Raleigh, N.C. Animals were anesthetized on the day of experiment with isoflurane (1.8-4%). Blood pressure and heart rate data were collected on a Grass Polygraph recorder. The test articles, vehicle or protamine dosing preparations were administered once to each rat by a 10 minute intravenous infusion three minutes following a single intravenous injection of heparin (50 U/kg). Each animal received a dose volume of 2.0 mL/kg. Blood pressure was recorded prior to treatment for approximately 1 minute and immediately following heparin, immediately following vehicle, test articles or protamine and at 5, 15, 30, and 60 minutes following dosing. The doses of test agent were either 8 mg/kg or 16 mg/kg. The differences in hemodynamic effect at 16 mg/kg were especially profound (FIG. 5).

SMILES | pEC50 (enoxaparin) | EC50 (UFH) [µM] | pEC50 (tinzaparin) | pEC50 (Unfractionated heparin) | pEC50 (fondaparinux [2]) | EC50 [1] [µg/mL] | hemolysis at 1 h (in vitro) [%] | Cytotoxicity HepG2, percent printed in parentheses after the concentration (HepG2 cells) [%] | EC50 at 1 h [3] [µg/mL] | Cytotoxicity 3T3, percent printed in parentheses after the concentration (NIH/3T3 cells) [%] | EC50 at 1 h [4] [µg/mL] | reduction of Factor Xa (anti-factor Xa) levels after fondaparinux (fondaparinux [5]; fondaparinux 0.5 mg/kg IV, test agent 2 and 5 mg/kg IV) | in vivo efficacy versus fondaparinux (summary) (fondaparinux [5]; in vivo) | Potent LMWH-antagonists with superior anti-fondaparinux activity (summary) (fondaparinux [2]) | hemodynamic response profile (blood pressure)
COc1ccc(NC(=O)[C@H](CCCNC(=N)N)NC(=O)c2cc(NC(=O)[C@H](CCCNC(=N)N)NC(=O)c3cc(NC(=O)[C@H](CCCNC(=N)N)NC(=O)c4cc(NC(C)=O)ccc4OC)ccc3OC)ccc2OCC(=O)O)cc1C(=O)N[C@@H](Cc1c[nH]c2ccccc12)C(N)=O [Compound 312] | 6.82 | 0.295 | 6.77 | < 5.00 | 6.92 | 1000 (≈ 738 µM) | 25 | – | – | – | – | – | – | – | –
COc1ccc(NC(=O)[C@H](CCCNC(=N)N)NC(=O)c2cc(NC(=O)[C@H](CCCNC(=N)N)NC(=O)c3cc(NC(=O)[C@H](CCCNC(=N)N)NC(=O)c4cc(NC(=O)[C@@H](N)CCCNC(=N)N)ccc4OC)ccc3OCC(=O)O)ccc2OC)cc1C(=O)N[C@@H](Cc1c[nH]c2ccccc12)C(N)=O [Compound 313] | 6.97 | 0.196 | 6.94 | 5.42 | 6.93 | ~100 (≈ 68.1 µM) | 20 | – | – | – | – | – | – | – | –
COc1ccc(NC(=O)[C@H](CCCCN)NC(=O)c2cc(NC(=O)[C@H](CCCCN)NC(=O)c3cc(NC(=O)[C@H](CCCCN)NC(=O)c4cc(NC(=O)[C@@H](N)Cc5c[nH]c6ccccc56)ccc4OC)ccc3OC)ccc2OC)cc1C(=O)N[C@@H](Cc1c[nH]c2ccccc12)C(=O)O [Compound 330] | 6.77 | – | 6.74 | < 5.00 | 6.66 | 5.4 (≈ 3.94 µM) | 75 | – | – | – | – | – | – | – | –
COc1cc(OC)c(C(=O)N[C@H]2CC[C@H](NC(=O)c3ccc(OCCCCCNC(=N)N)cc3OCCCCCNC(=N)N)CC2)cc1C(=O)N[C@H]1CC[C@H](NC(=O)c2ccc(OCCCCCNC(=N)N)cc2OCCCCCNC(=N)N)CC1 [Compound 336] | 7.10 and 7.04 | – | 6.88 and 7.08 | 5.85 and 5.91 | 7.04 and 7.20 | > 1000 | – | – | 505 (≈ 421 µM) | – | 390 (≈ 325 µM) | significant reductions in anti-Factor Xa activity | in vivo efficacy versus fondaparinux | superior anti-fondaparinux activity | –
COc1ccc(NC(=O)[C@H](CCCNC(=N)N)NC(=O)c2cc(NC(=O)[C@H](CCCNC(=N)N)NC(=O)c3cc(NC(=O)[C@H](CCCNC(=N)N)NC(=O)c4cc(NC(C)=O)ccc4OC)ccc3OCC(=O)O)ccc2OC)cc1C(=O)N[C@@H](Cc1c[nH]c2ccccc12)C(N)=O [Compound 314] | 6.68 | 0.295 | 6.70 | < 5.00 | 6.58 | 1000 (≈ 738 µM) | 25 | – | – | – | – | – | – | – | –
COc1ccc(NC(=O)[C@@H](CCCNC(=N)N)NC(=O)c2cc(NC(=O)[C@@H](CCCNC(=N)N)NC(=O)c3cc(NC(=O)[C@@H](CCCNC(=N)N)NC(=O)c4cc(NC(=O)[C@H](N)Cc5c[nH]c6ccccc56)ccc4OC)ccc3OC)ccc2OC)cc1C(=O)N[C@H](Cc1c[nH]c2ccccc12)C(=O)O [Compound 331] | 6.81 | – | 6.74 | < 5.00 | 6.79 | ~100 (≈ 68.7 µM) | 50 | – | – | – | – | – | – | – | –
COc1ccc(NC(=O)[C@H](CCCCN)NC(=O)c2cc(NC(=O)[C@H](CCCCN)NC(=O)c3cc(NC(=O)[C@H](CCCCN)NC(=O)c4cc(NC(=O)[C@@H](N)CCCCN)ccc4OC)ccc3OC)ccc2OC)cc1C(=O)NCCC(=O)O [Compound 261] | 6.46 and 6.53 | – | 6.63 and 6.67 | 5.82 and 5.67 | 5.22 and 5.20 | – | – | – | > 1000 | – | > 1000 | – | – | – | did not show an improved hemodynamic effect profile

More lines, main results first:

pEC50 (enoxaparin) | EC50 (UFH) [µM] | pEC50 (tinzaparin) | pEC50 (Unfractionated heparin) | pEC50 (fondaparinux [2]) | SMILES | EC50 [1] [µg/mL] | hemolysis at 1 h (in vitro) [%] | Cytotoxicity HepG2, percent printed in parentheses after the concentration (HepG2 cells) [%] | EC50 at 1 h [3] [µg/mL] | Cytotoxicity 3T3, percent printed in parentheses after the concentration (NIH/3T3 cells) [%] | EC50 at 1 h [4] [µg/mL] | reduction of Factor Xa (anti-factor Xa) levels after fondaparinux (fondaparinux [5]; fondaparinux 0.5 mg/kg IV, test agent 2 and 5 mg/kg IV) | in vivo efficacy versus fondaparinux (summary) (fondaparinux [5]; in vivo) | Potent LMWH-antagonists with superior anti-fondaparinux activity (summary) (fondaparinux [2]) | hemodynamic response profile (blood pressure)
6.69 | – | 6.69 | 5.10 | 6.43 | COc1ccc(NC(=O)[C@@H](CCCNC(=N)N)NC(=O)c2cc(NC(=O)[C@@H](CCCNC(=N)N)NC(=O)c3cc(NC(=O)[C@@H](CCCNC(=N)N)NC(=O)c4cc(NC(=O)[C@H](N)Cc5c[nH]c6ccccc56)ccc4OC)ccc3OC)ccc2OCC(=O)O)cc1C(N)=O [Compound 329] | 18 (≈ 13.7 µM) | 50 | – | – | – | – | – | – | – | –
6.88 | 0.301 | 6.86 | 5.64 | 6.92 | COc1ccc(NC(=O)[C@H](CCCNC(=N)N)NC(=O)c2cc(NC(=O)[C@H](CCCNC(=N)N)NC(=O)c3cc(NC(=O)[C@H](CCCNC(=N)N)NC(=O)c4cc(NC(=O)[C@@H](N)CCCNC(=N)N)ccc4OC)ccc3OC)ccc2OC)cc1C(=O)N[C@@H](Cc1c[nH]c2ccccc12)C(=O)O [Compound 309] | ~100 (≈ 70.1 µM) | – | 50 | 1000 (≈ 701 µM) | 50 | 1000 (≈ 701 µM) | – | – | – | –
6.84 | – | 6.86 | 5.81 | 6.41 | COc1ccc(NC(=O)[C@H](CCCNC(=N)N)NC(=O)c2cc(NC(=O)[C@H](CCCNC(=N)N)NC(=O)c3cc(NC(=O)[C@H](CCCNC(=N)N)NC(=O)c4cc(NC(=O)[C@@H](N)CCCNC(=N)N)ccc4OC)ccc3OC)ccc2OC)cc1C(=O)NCC(=O)O [Compound 284] | 1000 (≈ 771 µM) | 50 | – | – | – | – | – | – | – | –
6.71 | – | 6.80 | 5.68 | 6.38 | COc1ccc(NC(=O)[C@@H](CCCNC(=N)N)NC(=O)c2cc(NC(=O)[C@@H](CCCNC(=N)N)NC(=O)c3cc(NC(=O)[C@@H](CCCNC(=N)N)NC(=O)c4cc(NC(=O)[C@H](N)CCC(=O)O)ccc4OC)ccc3OC)ccc2OC)cc1C(N)=O [Compound 322] | 1000 (≈ 826 µM) | 50 | – | – | – | – | – | – | – | –
